Laboratory results from the RepoRT retention time repository (doi:10.1016/j.foodchem.2021.129757).
Counter-ions that a name gives are not always drawn.

Columns and labels:
Details in all cases: stereoisomer not certain
[1] = RP, Waters ACQUITY UPLC BEH Shield RP18, 150 × 2.1 mm, 1.7 µm, 40 °C, 0.4 mL/min, estimated dead time 0.83 min; A: water + 0.1% formic acid, pH 3; B: acetonitrile + 0.1% formic acid, pH 3; gradient (min/%B) 0/0 30/50 31/100 37/100 37.1/0
[2] = RP, Waters ACQUITY UPLC HSS T3, 100 × 2.1 mm, 50 °C; A: water + 0.1% formic acid, pH 3; B: 30% methanol + 70% acetonitrile + 0.1% formic acid, pH 3; gradient (min/%B) 0/5 1/8 2/15 3/40 4/70 4.5/100 5/100 6.4/100 6.6/5 6.8/5 7/5
[3] = RP, Waters ACQUITY UPLC BEH C18, 100 × 2.1 mm, 1.7 µm, 65 °C, 0.4 mL/min, estimated dead time 0.55 min; A: water + 0.1% formic acid, pH 3; B: 80% acetonitrile + 20% acetone + 0.1% formic acid, pH 3; gradient (min/%B) 0/0 5/100 5.5/0 6/0
[4] = RP, Agilent ZORBAX RRHD Eclipse Plus C18, 50 × 2.1 mm, 1.8 µm, 30 °C, 0.4 mL/min, estimated dead time 0.28 min; A: water + 0.1% formic acid, pH 3; B: acetonitrile + 0.1% formic acid, pH 3; gradient (min/%B) 0/1 5/10 8/25 9.1/99 10/99 12/1
[5] = RP, Agilent ZORBAX RRHD Eclipse Plus C18, 50 × 2.1 mm, 1.8 µm, 30 °C, 0.4 mL/min, estimated dead time 0.28 min; A: water + 0.1% formic acid, pH 3; B: acetonitrile + 0.1% formic acid, pH 3; gradient (min/%B) 0/1 5/10 8/25 9.1/99 10/99 12/99
[6] = RP, Agilent ZORBAX Eclipse XDB-C18, 100 × 2.1 mm, 1.8 µm, 50 °C, 0.4 mL/min, estimated dead time 0.55 min; A: water + 0.1% formic acid, pH 3; B: methanol + 0.1% formic acid, pH 3; gradient (min/%B) 0/2 10/100 14.5/100 14.51/2 16.5/2

## CC1=C2C(=O)C=C(COC(=O)C(=O)O)C2C2OC(=O)C(C)C2C(OC(=O)Cc2ccc(O)cc2)C1 (stereo unspecified) [Dihydrolactucopicrin-15-oxalate]
[1]
  LC retention time: 17.3 min

## CC(=O)Nc1c(N)[nH]c(=O)n(C)c1=O [AAMU]
[2]
  LC retention time: 0.681 min

## COc1cc(CC(=O)O)ccc1OS(=O)(=O)O [Homovanillic acid sulfate]
[3]
  LC retention time: 1.45 min
[4]
  LC retention time: 4.48 min
[5]
  LC retention time: 2.12 min

## O=C(O)CNC(=O)c1cccc(O)c1 [3-Hydroxyhippuric acid]
[3]
  LC retention time: 1.58 min
[4]
  LC retention time: 3.58 min
[5]
  LC retention time: 1.88 min

## CS(=O)CCCN=C=S (stereo unspecified) [Iberin]
[2]
  LC retention time: 3.25 min

## Cn1c(=O)[nH]c(=O)c2c1[nH]c(=O)n2C [3,7-Dimethyluric acid]
[2]
  LC retention time: 1.54 min

## COc1cc(CCC(=O)O)ccc1O [Dihydroferulic acid]
[4]
  LC retention time: 7.16 min
[5]
  LC retention time: 4.07 min
[1]
  LC retention time: 8.81 min

## C=C1C(=O)OC2C3C(CO)=CC(=O)C3=C(C)CC(O)C12 (stereo unspecified) [Lactucin]
[1]
  LC retention time: 11.2 min

## C=C1C(=O)OC2C3C(COC(=O)C(=O)O)=CC(=O)C3=C(C)CC(OC(=O)Cc3ccc(O)cc3)C12 (stereo unspecified) [lactucopicrin-15-oxalate]
[1]
  LC retention time: 17.2 min

## C=C1C(=O)OC2C1CCC(C)=C1C(=O)C=C(COC(=O)C(=O)O)C12 (stereo unspecified) [8-deoxylactucin-15-oxalate]
[1]
  LC retention time: 14.5 min

## Cn1cnc2[nH]c(=O)[nH]c(=O)c21 [7-Methylxanthine]
[2]
  LC retention time: 1.25 min

## O=C(O)c1cc(=O)c2cccc(O)c2[nH]1 [Xanthurenic acid]
[2]
  LC retention time: 2.57 min

## O=C(O)CCc1ccc(O)cc1O [3-(2,4-dihydroxyphenyl)propionic acid]
[2]
  LC retention time: 3.02 min

## O=C1OC(C(O)CO)C(O)=C1O (stereo unspecified) [Ascorbic acid]
[2]
  LC retention time: 0.601 min

## C=C1C(=O)OC2C3C(COC(=O)C(=O)O)=CC(=O)C3=C(C)CC(O)C12 (stereo unspecified) [lactucin-15-oxalate]
[1]
  LC retention time: 10.4 min

## CN(C)CC(=O)O [N,N-Dimethylglycine]
[2]
  LC retention time: 0.49 min

## CC1=C2C(=O)C=C(COC(=O)C(=O)O)C2C2OC(=O)C(C)C2C(O)C1 (stereo unspecified) [Dihydrolactucin-15-oxalate]
[1]
  LC retention time: 9.7 min

## CC1=C2C(=O)C=C(CO)C2C2OC(=O)C(C)C2C(O)C1 (stereo unspecified) [Dihydrolactucin]
[1]
  LC retention time: 10.5 min

## O=C1c2c(O)cc(O)cc2OC(c2ccc(O)cc2)C1O (stereo unspecified) [Dihydrokaempferol]
[1]
  LC retention time: 15.3 min

## Oc1ccccc1O [Catechol]
[3]
  LC retention time: 1.75 min
[4]
  LC retention time: 3.15 min
[5]
  LC retention time: 3.97 min
[1]
  LC retention time: 4.35 min

## C=C1C(=O)OC2C3C(CO)=CC(=O)C3=C(C)CC(OC(=O)Cc3ccc(O)cc3)C12 (stereo unspecified) [Lactucopicrin]
[1]
  LC retention time: 18.4 min

## CC1=C2C(=O)C=C(CO)C2C2OC(=O)C(C)C2CC1 (stereo unspecified) [Dihydro-8-deoxylactucin]
[1]
  LC retention time: 14.5 min

## O=c1c(O)c(-c2ccccc2)oc2cc(O)cc(O)c12 [galangin]
[1]
  LC retention time: 29.4 min

## CC1=C2C(=O)C=C(COC(=O)C(=O)O)C2C2OC(=O)C(C)C2CC1 (stereo unspecified) [Dihydro-8-deoxylactucin-15-oxalate]
[1]
  LC retention time: 14.9 min

## O=C(O)Cc1cccc(O)c1 [3-hydroxyphenylacetic acid]
[4]
  LC retention time: 5.69 min
[5]
  LC retention time: 4.67 min
[6]
  LC retention time: 3.55 min

## Cc1ccc(OS(=O)(=O)O)c(O)c1 [4-Methylcatechol-1-O-sulfate]
[4]
  LC retention time: 5.96 min
[5]
  LC retention time: 3.83 min

## C=C1C(=O)OC2C1CCC(C)=C1C(=O)C=C(CO)C12 (stereo unspecified) [8-deoxylactucin]
[1]
  LC retention time: 15.5 min

## Oc1cccc(O)c1 [Resorcinol]
[4]
  LC retention time: 2.66 min
[5]
  LC retention time: 1.44 min

## O=C(O)C=Cc1ccc(O)c(OC2OC(C(=O)O)C(O)C(O)C2O)c1 (stereo unspecified) [Caffeic acid-3-glucuronide]
[4]
  LC retention time: 5.23 min
[5]
  LC retention time: 4.14 min

## O=S(=O)(O)Oc1cccc(O)c1O [Pyrogallol-1-O-sulfate]
[4]
  LC retention time: 1.56 min
[5]
  LC retention time: 0.774 min

## CCCOC(=O)c1cc(O)c(O)c(O)c1 [propyl gallate]
[1]
  LC retention time: 12.8 min
